Experimental data reported in patent publication US20250352520A1, “USE OF DEXPRAMIPEXOLE FOR THE TREATMENT OF EOSINOPHILIC COPD” (Areteia Therapeutics, Inc., priority 2024, published 2025).
Where two headings read alike, the source gives them in different places.

Conditions: Week 16
Procedure: Participants performed post-BD spirometry at specific visits as noted in the SOA.
After completing the pre-BD spirometry, participants inhaled four puffs of albuterol/salbutamol (site sourced) metered dose inhaler (approximately 100 μg albuterol/salbutamol base per actuation), with each actuation 1 minute apart. Post-BD spirometry was assessed within 15 to 30 minutes after inhalation of albuterol/salbutamol.

[1] = <50% AEC reduction at Week 16 (N = 4), 150 mg BID
[2] = >=50% AEC reduction at Week 16 (N = 3), 150 mg BID

SMILES: CCCN[C@@H]1CCc2nc(N)sc2C1 [Dexpramipexole, (6R)-2-amino-4,5,6,7-tetrahydro-6-(propylamino)benzothiazole]
- Post bronchodilator Peak Flow, Observed, Median [1]: 324.5 L/min
- Post bronchodilator Peak Flow, Observed, Min [1]: 146 L/min
- Post bronchodilator Peak Flow, Observed, Q1 [1]: 227 L/min
- Post bronchodilator Peak Flow, Observed, Q3 [1]: 425 L/min
- Post-BD FEV1 % change from baseline, Max (>=50% AEC reduction at Week 16): 57%
- Post-BD FEV1 % change from baseline, Mean ± SD (>=50% AEC reduction at Week 16): 16.6 ± 35.02%
- Post-BD FEV1 % change from baseline, Median (>=50% AEC reduction at Week 16): −1.1%
- Post-BD FEV1 % change from baseline, Min (>=50% AEC reduction at Week 16): −6%
- Post-BD FEV1 % change from baseline, Q1 (>=50% AEC reduction at Week 16): −6%
- Post-BD FEV1 % change from baseline, Q3 (>=50% AEC reduction at Week 16): 57%
- Post-BD FEV1 Observed, Max (>=50% AEC reduction at Week 16): 2150 mL
- Post-BD FEV1 Observed, Mean ± SD (>=50% AEC reduction at Week 16): 1593.3 ± 616.95 mL
- Post-BD FEV1 Observed, Median (>=50% AEC reduction at Week 16): 1700.0 mL
- Post-BD FEV1 Observed, Min (>=50% AEC reduction at Week 16): 930 mL
- Post-BD FEV1 Observed, Q1 (>=50% AEC reduction at Week 16): 930 mL
- Post-BD FEV1 Observed, Q3 (>=50% AEC reduction at Week 16): 2150 mL
- Post-BD FEV1 change from baseline, Max (>=50% AEC reduction at Week 16): 780 mL
- Post-BD FEV1 change from baseline, Mean ± SD (>=50% AEC reduction at Week 16): 220.0 ± 487.54 mL
- Post-BD FEV1 change from baseline, Median (>=50% AEC reduction at Week 16): -10.0 mL
- Post-BD FEV1 change from baseline, Min (>=50% AEC reduction at Week 16): -110 mL
- Post-BD FEV1 change from baseline, Q1 (>=50% AEC reduction at Week 16): -110 mL
- Post-BD FEV1 change from baseline, Q3 (>=50% AEC reduction at Week 16): 780 mL
- Post bronchodilator Forced Expiratory Flow 25-75% (FEF25-75), % CFB (Percent change from baseline), Max [2]: 81%
- Post bronchodilator Forced Expiratory Flow 25-75% (FEF25-75), % CFB (Percent change from baseline), Mean ± SD [2]: 26.7 ± 49.08%
- Post bronchodilator Forced Expiratory Flow 25-75% (FEF25-75), % CFB (Percent change from baseline), Median [2]: 12.5%
- Post bronchodilator Forced Expiratory Flow 25-75% (FEF25-75), % CFB (Percent change from baseline), Min [2]: −14%
- Post bronchodilator Forced Expiratory Flow 25-75% (FEF25-75), % CFB (Percent change from baseline), Q1 [2]: −14%
- Post bronchodilator Forced Expiratory Flow 25-75% (FEF25-75), % CFB (Percent change from baseline), Q3 [2]: 81%
- Post bronchodilator Forced Expiratory Flow 25-75% (FEF25-75), CFB (Change from baseline), Max [2]: 520 mL/s
- Post bronchodilator Forced Expiratory Flow 25-75% (FEF25-75), CFB (Change from baseline), Mean ± SD [2]: 130.0 ± 350.86 mL/s
- Post bronchodilator Forced Expiratory Flow 25-75% (FEF25-75), CFB (Change from baseline), Median [2]: 30.0 mL/s
- Post bronchodilator Forced Expiratory Flow 25-75% (FEF25-75), CFB (Change from baseline), Min [2]: -160 mL/s
- Post bronchodilator Forced Expiratory Flow 25-75% (FEF25-75), CFB (Change from baseline), Q1 [2]: -160 mL/s
- Post bronchodilator Forced Expiratory Flow 25-75% (FEF25-75), CFB (Change from baseline), Q3 [2]: 520 mL/s
- Post bronchodilator Forced Expiratory Flow 25-75% (FEF25-75), Observed, Max [2]: 1160 mL/s
- Post bronchodilator Forced Expiratory Flow 25-75% (FEF25-75), Observed, Mean ± SD [2]: 810.0 ± 474.45 mL/s
- Post bronchodilator Forced Expiratory Flow 25-75% (FEF25-75), Observed, Median [2]: 1000.0 mL/s
- Post bronchodilator Forced Expiratory Flow 25-75% (FEF25-75), Observed, Min [2]: 270 mL/s
- Post bronchodilator Forced Expiratory Flow 25-75% (FEF25-75), Observed, Q1 [2]: 270 mL/s
- Post bronchodilator Forced Expiratory Flow 25-75% (FEF25-75), Observed, Q3 [2]: 1160 mL/s
- Post bronchodilator Forced Vital Capacity (FVC), % CFB (Percent change from baseline), Max [2]: 36%
- Post bronchodilator Forced Vital Capacity (FVC), % CFB (Percent change from baseline), Mean ± SD [2]: 9.2 ± 23.24%
- Post bronchodilator Forced Vital Capacity (FVC), % CFB (Percent change from baseline), Median [2]: −2.4%
- Post bronchodilator Forced Vital Capacity (FVC), % CFB (Percent change from baseline), Min [2]: −6%
- Post bronchodilator Forced Vital Capacity (FVC), % CFB (Percent change from baseline), Q1 [2]: −6%
- Post bronchodilator Forced Vital Capacity (FVC), % CFB (Percent change from baseline), Q3 [2]: 36%
- Post bronchodilator Forced Vital Capacity (FVC), CFB (Change from baseline), Max [2]: 900 mL
- Post bronchodilator Forced Vital Capacity (FVC), CFB (Change from baseline), Mean ± SD [2]: 226.7 ± 585.26 mL
- Post bronchodilator Forced Vital Capacity (FVC), CFB (Change from baseline), Median [2]: -60.0 mL
- Post bronchodilator Forced Vital Capacity (FVC), CFB (Change from baseline), Min [2]: -160 mL
- Post bronchodilator Forced Vital Capacity (FVC), CFB (Change from baseline), Q1 [2]: -160 mL
- Post bronchodilator Forced Vital Capacity (FVC), CFB (Change from baseline), Q3 [2]: 900 mL
- Post bronchodilator Forced Vital Capacity (FVC), Observed, Max [2]: 3400 mL
- Post bronchodilator Forced Vital Capacity (FVC), Observed, Mean ± SD [2]: 2796.7 ± 527.86 mL
- Post bronchodilator Forced Vital Capacity (FVC), Observed, Median [2]: 2570.0 mL
- Post bronchodilator Forced Vital Capacity (FVC), Observed, Min [2]: 2420 mL
- Post bronchodilator Forced Vital Capacity (FVC), Observed, Q1 [2]: 2420 mL
- Post bronchodilator Forced Vital Capacity (FVC), Observed, Q3 [2]: 3400 mL
- Post bronchodilator Peak Flow, % CFB (Percent change from baseline), Max [2]: 103%
- Post bronchodilator Peak Flow, % CFB (Percent change from baseline), Mean ± SD [2]: 40.2 ± 55.44%
- Post bronchodilator Peak Flow, % CFB (Percent change from baseline), Median [2]: 21.5%
- Post bronchodilator Peak Flow, % CFB (Percent change from baseline), Min [2]: −3%
- Post bronchodilator Peak Flow, % CFB (Percent change from baseline), Q1 [2]: −3%
- Post bronchodilator Peak Flow, % CFB (Percent change from baseline), Q3 [2]: 103%
- Post bronchodilator Peak Flow, CFB (Change from baseline), Max [2]: 161 L/min
- Post bronchodilator Peak Flow, CFB (Change from baseline), Mean ± SD [2]: 64.3 ± 86.56 L/min
- Post bronchodilator Peak Flow, CFB (Change from baseline), Median [2]: 38.0 L/min
- Post bronchodilator Peak Flow, CFB (Change from baseline), Min [2]: -6 L/min
- Post bronchodilator Peak Flow, CFB (Change from baseline), Q1 [2]: -6 L/min
- Post bronchodilator Peak Flow, CFB (Change from baseline), Q3 [2]: 161 L/min
- Post bronchodilator Peak Flow, Observed, Max [2]: 318 L/min
- Post bronchodilator Peak Flow, Observed, Mean ± SD [2]: 233.0 ± 77.58 L/min
- Post bronchodilator Peak Flow, Observed, Median [2]: 215.0 L/min
- Post bronchodilator Peak Flow, Observed, Min [2]: 166 L/min
- Post bronchodilator Peak Flow, Observed, Q1 [2]: 166 L/min
- Post bronchodilator Peak Flow, Observed, Q3 [2]: 318 L/min
